Measurements reported in paper PMC8112388 (Inorganic chemistry, 2021).

Target: human serum albumin (HSA) (Homo sapiens, UniProt P02768)
Test: proton relaxation enhancement titration
Assay type: binding
Conditions: read-out: KD(HSA)

human serum albumin (HSA), sequence (P02768 25-609): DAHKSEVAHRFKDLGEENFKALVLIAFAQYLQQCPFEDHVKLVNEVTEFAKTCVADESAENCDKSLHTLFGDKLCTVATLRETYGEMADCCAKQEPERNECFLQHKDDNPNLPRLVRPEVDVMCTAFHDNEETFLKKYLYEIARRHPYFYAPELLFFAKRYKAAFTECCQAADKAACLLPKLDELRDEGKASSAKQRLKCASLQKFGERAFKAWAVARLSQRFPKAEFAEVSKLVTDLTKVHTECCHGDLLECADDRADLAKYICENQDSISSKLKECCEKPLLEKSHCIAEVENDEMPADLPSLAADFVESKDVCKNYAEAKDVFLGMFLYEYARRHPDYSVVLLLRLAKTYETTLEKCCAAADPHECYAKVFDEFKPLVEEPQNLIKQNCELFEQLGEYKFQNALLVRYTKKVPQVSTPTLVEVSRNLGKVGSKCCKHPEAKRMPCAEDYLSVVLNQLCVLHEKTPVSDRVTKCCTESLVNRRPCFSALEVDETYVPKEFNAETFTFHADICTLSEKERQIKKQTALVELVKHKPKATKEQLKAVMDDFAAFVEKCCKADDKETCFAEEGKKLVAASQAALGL

**Q.** With MnPyC3A–BPEN [Mn(3)] as the substance, how does the Kd read?
**A.** 28 ± 1 µM
